Assay results: ChEMBL document CHEMBL3217431, “Synthesis, in silico screening and bioevaluation of dispiro-cycloalkanones as antitubercular and mycobacterial NAD+-dependent DNA ligase inhibitors” (Medchemcomm, 2011)
≈ marks a conversion by molar mass, not a printed value.

System: Escherichia coli
Test: In vivo antibacterial activity against Escherichia coli GR501 harboring lig251 temperature-sensitive mutant gene transformed with plasmid encoding Mycobacterium tuberculosis NAD+ DNA ligase assessed as growth inhibition after 20 hrs by microdilution assay
Assay type: functional
Details: GR501, 20 h

## O=C1C2(CCCC13CC3c1ccc(F)cc1)CC2c1ccc(F)cc1 (configuration not stated)
  MIC: 44.3 µM (≈ 15 µg/mL)

## O=C1C2(CCCC13CC3c1ccc(Br)cc1)CC2c1ccc(Br)cc1 (configuration not stated)
  MIC: 52.1 µM (≈ 24 µg/mL)
